Data set [1] deals with cells in small intestines. The experiment in a line: in vivo effect of DAPT on the cells in small intestines (H&E, alcian blue, Ki67, HES-1 staining). Set-up: species or system mice. An excerpt: FIG. 6 is a series of photomicrographs showing the effect of DAPT on gastrointestinal tissue. In vivo model was used to test the effect of DAPT delivered from alginate gel system and from intraperitoneal injection on the cells in small intestines. gel: alginate gel. ip: intraperitoneal injection. H&E, alcian blue, Ki67 and HES-1 are the four different staining methods to characterize the crypt cells in small intestines. Ki-67 was used to stain the proliferative cells. Loss of Notch signaling can alter the proliferation rate of crypt cells. HES-1 staining was to examine the expression of a known Notch target gene in crypts. Alcian blue staining was to examine the deposition of glycosaminoglycan molecules. Loss of Notch signaling can result in more deposition of glycosaminoglycan molecules. Expression of HES-1 (hairy and enhancer of split 1), a member of basic helix-loop-helix family of transcription factors and a known Notch target gene in crypts was examined. Loss of Notch signaling can alter the proliferation rate of crypt cells, as shown by Ki-67 staining the proliferative cells. In addition, Notch inhibition has been reported to alter the balance between proliferative crypt cells and goblet cells, resulting in more deposition of glycosaminoglycan molecules, as characterized by alcian blue staining.

The test system of data set [2] is Endothelial cells isolated from diabetics. The experiment in a line: in vitro sprouting model with endothelial cells isolated from diabetics. It is filed as cell-based. An excerpt: In addition, there is an optimal VEGF concentration to induce most sprouts.
Endothelial cells isolated from diabetics produce more sprouts in the presence of a combination of both gamma-secretase inhibitors with VEGF. (FIG. 2, *P<0.05) than with either of them alone, which implies the need of a combination of both growth factor and DAPT.

[3] abbreviates: DAPT delivered via intraperitoneal injection.

The source of these data is patent US9539309B2, “Controlled release of growth factors and signaling molecules for promoting angiogenesis” (President and Fellows of Harvard College, priority 2008, dated 2017).

On to `C[C@H](NC(=O)Cc1cc(F)cc(F)c1)C(=O)N[C@H](C(=O)OC(C)(C)C)c1ccccc1` [DAPT, N—[N-(3,5-Difluorophenacetyl-L-alanyl)]-S-phenylglycine t-butyl ester], for which the “cell differentiation at distant sites (small intestines)” value in data set [1] (DAPT delivered from alginate gel system, compared with intraperitoneal injection, FIG. 6) is “does not alter cell differentiation at distant sites as much”. Moreover, in data set [1] (DAPT delivered from the gel system), the region of effects entry is “only has effects in the local region”. For the same molecule, in data set [1] (setting [3]), the “Notch target gene expression, HES-1 staining” value is listed as “downregulation of Notch target gene expression”; the “glycosaminoglycans, alcian blue staining” value is reported as “presence of extra glycosaminoglycans”; the “intestinal structure, H&E staining” value is “disrupts normal intestinal structure”; the “proliferating cells, Ki67 staining” value is listed as “loss of proliferating cells”. In addition, in data set [1] (DAPT delivered via intraperitoneal injection, goes into the systemic circulation), the “effects at distant organs (e.g., small intestines)” value is given as “led to adverse effects at distant organs”.
As to VEGF, the “concentration of VEGF that gives the most sprouts if used alone” value in data set [2] (VEGF alone, FIG. 3) is 50 ng/mL. Moreover, in data set [2] (endothelial cells from diabetics compared to age-matched non-diabetics, FIG. 1, P<0.05), the “response to VEGF, capability of forming sprouts” value is “reduced response”.
